Reference: PubChem BioAssay (NCI)
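Assay format: 96-well plates, 48-hour exposure. Definition used: TGI = concentration required for complete inhibition of growth.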

Tests used:
Assay in all cases: growth of human tumour cells (NCI), 48 h
NCI-H522 lung = test system: NCI-H522 lung
EKVX NSCLC = test system: EKVX NSCLC
HCT-15 colon = test system: HCT-15 colon
NCI-H226 lung = test system: NCI-H226 lung
SK-MEL-5 melanoma = test system: SK-MEL-5 melanoma
NCI-H460 lung = test system: NCI-H460 lung
HL-60(TB) leukemia = test system: HL-60(TB) leukemia
SF-268 CNS = test system: SF-268 CNS
MDA-MB-435 = test system: MDA-MB-435
OVCAR-4 ovarian = test system: OVCAR-4 ovarian
HS 578T breast = test system: HS 578T breast
OVCAR-3 ovarian = test system: OVCAR-3 ovarian
HT29 colon = test system: HT29 colon
SF-539 CNS = test system: SF-539 CNS
IGROV1 ovarian = test system: IGROV1 ovarian
SK-MEL-2 melanoma = test system: SK-MEL-2 melanoma
K-562 leukemia = test system: K-562 leukemia
M14 melanoma = test system: M14 melanoma
A549 NSCLC = test system: A549 NSCLC
UACC-62 melanoma = test system: UACC-62 melanoma
CAKI-1 renal = test system: CAKI-1 renal
OVCAR-5 ovarian = test system: OVCAR-5 ovarian
TK-10 renal = test system: TK-10 renal
HCC-2998 colon = test system: HCC-2998 colon
SW-620 colon = test system: SW-620 colon
RXF 393 renal = test system: RXF 393 renal
SN12C renal = test system: SN12C renal
MDA-MB-231 breast = test system: MDA-MB-231 breast
RPMI-8226 leukemia = test system: RPMI-8226 leukemia
786-0 renal = test system: 786-0 renal
HCT-116 colon = test system: HCT-116 colon
SNB-75 CNS = test system: SNB-75 CNS
ACHN renal = test system: ACHN renal
NCI/ADR-RES ovarian = test system: NCI/ADR-RES ovarian
SK-MEL-28 melanoma = test system: SK-MEL-28 melanoma
PC-3 prostate = test system: PC-3 prostate
DU-145 prostate = test system: DU-145 prostate
A498 renal = test system: A498 renal
HOP-62 NSCLC = test system: HOP-62 NSCLC
COLO 205 colon = test system: COLO 205 colon
MDA-N = test system: MDA-N
T-47D breast = test system: T-47D breast
MOLT-4 leukemia = test system: MOLT-4 leukemia
KM12 colon = test system: KM12 colon
SR leukemia = test system: SR leukemia
HOP-92 NSCLC = test system: HOP-92 NSCLC
SF-295 CNS = test system: SF-295 CNS
CCRF-CEM leukemia = test system: CCRF-CEM leukemia
MALME-3M melanoma = test system: MALME-3M melanoma
LOX IMVI melanoma = test system: LOX IMVI melanoma
UO-31 renal = test system: UO-31 renal
NCI-H23 lung = test system: NCI-H23 lung
SK-OV-3 ovarian = test system: SK-OV-3 ovarian
SNB-19 CNS = test system: SNB-19 CNS
U251 CNS = test system: U251 CNS
MCF7 breast = test system: MCF7 breast
OVCAR-8 ovarian = test system: OVCAR-8 ovarian

CC1=CC(=O)c2cccc(NC3=NCCO3)c21
TGI (NCI-H522 lung): > 100 µM | TGI (EKVX NSCLC): > 100 µM | TGI (HCT-15 colon): > 100 µM | TGI (NCI-H226 lung): 87.2 µM | TGI (SK-MEL-5 melanoma): 42.3 µM | TGI (NCI-H460 lung): > 100 µM | TGI (HL-60(TB) leukemia): 41.2 µM | TGI (SF-268 CNS): > 100 µM | TGI (MDA-MB-435): 86.2 µM | TGI (OVCAR-4 ovarian): > 100 µM | TGI (HS 578T breast): > 100 µM | TGI (OVCAR-3 ovarian): 90.4 µM | TGI (HT29 colon): > 100 µM | TGI (SF-539 CNS): > 100 µM | TGI (IGROV1 ovarian): > 100 µM | TGI (SK-MEL-2 melanoma): > 100 µM | TGI (K-562 leukemia): > 100 µM | TGI (M14 melanoma): > 100 µM | TGI (A549 NSCLC): > 100 µM | TGI (UACC-62 melanoma): > 100 µM | TGI (CAKI-1 renal): > 100 µM | TGI (OVCAR-5 ovarian): > 100 µM | TGI (TK-10 renal): > 100 µM | TGI (HCC-2998 colon): > 100 µM | TGI (SW-620 colon): > 100 µM | TGI (RXF 393 renal): > 100 µM | TGI (SN12C renal): > 100 µM | TGI (MDA-MB-231 breast): > 100 µM | TGI (RPMI-8226 leukemia): > 100 µM | TGI (786-0 renal): > 100 µM | TGI (HCT-116 colon): > 100 µM | TGI (SNB-75 CNS): > 100 µM | TGI (ACHN renal): > 100 µM | TGI (NCI/ADR-RES ovarian): 82.5 µM | TGI (SK-MEL-28 melanoma): > 100 µM | TGI (PC-3 prostate): > 100 µM | TGI (DU-145 prostate): > 100 µM | TGI (A498 renal): > 100 µM | TGI (HOP-62 NSCLC): > 100 µM | TGI (COLO 205 colon): > 100 µM | TGI (MDA-N): > 100 µM | TGI (T-47D breast): > 100 µM | TGI (MOLT-4 leukemia): > 100 µM | TGI (KM12 colon): 90.5 µM | TGI (SR leukemia): 91.6 µM | TGI (HOP-92 NSCLC): 77.7 µM | TGI (SF-295 CNS): > 100 µM | TGI (CCRF-CEM leukemia): > 100 µM | TGI (MALME-3M melanoma): 91.6 µM | TGI (LOX IMVI melanoma): > 100 µM | TGI (UO-31 renal): > 100 µM | TGI (NCI-H23 lung): > 100 µM | TGI (SK-OV-3 ovarian): > 100 µM | TGI (SNB-19 CNS): > 100 µM | TGI (U251 CNS): > 100 µM

N#CSCC1COc2ccccc2O1 (stereo not given)
TGI (NCI-H522 lung): 7.05 µM | TGI (EKVX NSCLC): > 10 µM | TGI (HCT-15 colon): > 10 µM | TGI (NCI-H226 lung): > 10 µM | TGI (SK-MEL-5 melanoma): > 10 µM | TGI (NCI-H460 lung): > 10 µM | TGI (HL-60(TB) leukemia): 8.66 µM | TGI (SF-268 CNS): > 10 µM | TGI (MDA-MB-435): > 10 µM | TGI (OVCAR-4 ovarian): > 10 µM | TGI (HS 578T breast): > 10 µM | TGI (OVCAR-3 ovarian): > 10 µM | TGI (HT29 colon): > 10 µM | TGI (SF-539 CNS): > 10 µM | TGI (IGROV1 ovarian): > 10 µM | TGI (SK-MEL-2 melanoma): > 10 µM | TGI (K-562 leukemia): > 10 µM | TGI (M14 melanoma): > 10 µM | TGI (A549 NSCLC): > 10 µM | TGI (MCF7 breast): > 10 µM | TGI (UACC-62 melanoma): > 10 µM | TGI (CAKI-1 renal): > 10 µM | TGI (OVCAR-5 ovarian): > 10 µM | TGI (TK-10 renal): > 10 µM | TGI (HCC-2998 colon): > 10 µM | TGI (SW-620 colon): > 10 µM | TGI (RXF 393 renal): > 10 µM | TGI (SN12C renal): > 10 µM | TGI (MDA-MB-231 breast): > 10 µM | TGI (RPMI-8226 leukemia): > 10 µM | TGI (HCT-116 colon): > 10 µM | TGI (SNB-75 CNS): > 10 µM | TGI (ACHN renal): > 10 µM | TGI (NCI/ADR-RES ovarian): > 10 µM | TGI (SK-MEL-28 melanoma): > 10 µM | TGI (PC-3 prostate): > 10 µM | TGI (DU-145 prostate): > 10 µM | TGI (A498 renal): > 10 µM | TGI (HOP-62 NSCLC): > 10 µM | TGI (COLO 205 colon): > 10 µM | TGI (MDA-N): > 10 µM | TGI (T-47D breast): > 10 µM | TGI (MOLT-4 leukemia): > 10 µM | TGI (KM12 colon): > 10 µM | TGI (SR leukemia): > 10 µM | TGI (SF-295 CNS): > 10 µM | TGI (CCRF-CEM leukemia): 8.3 µM | TGI (MALME-3M melanoma): > 10 µM | TGI (LOX IMVI melanoma): > 10 µM | TGI (UO-31 renal): > 10 µM | TGI (NCI-H23 lung): > 10 µM | TGI (SK-OV-3 ovarian): > 10 µM | TGI (OVCAR-8 ovarian): > 10 µM | TGI (SNB-19 CNS): > 10 µM | TGI (U251 CNS): > 10 µM
